Reference: US20240261244A1, “METHODS FOR TREATING VIRAL INFECTIONS” (Daarsh Innovations, Inc., priority 2023, published 2024)

Test system: SARS Cov-2 virus
Assay type: cell-based
Conditions: 90 μL test solution + 10 μL virus (about 10^5 PFU/ml), 3 minutes contact at room temperature; plaque assay on Vero E6 cells

In the case of `O=C(O)CN(CCN(CC(=O)O)CC(=O)O)CC(=O)O` [EDTA 5%, ethylenediaminetetraacetic acid], the “Residual Viral Load (Log PFU/0.1 ml)” value is reported as 3.40 Log PFU/0.1 ml.
